{"source": "ChEMBL document CHEMBL4706755", "about": "“Novel Small Molecule RNA m6A Demethylase AlkBH5 Inhibitors for Treating Cancer” (ACS Med Chem Lett, 2021)", "target": "RNA demethylase ALKBH5 (Homo sapiens, UniProt Q6P6C2)", "sequence (Q6P6C2 whole entry)": "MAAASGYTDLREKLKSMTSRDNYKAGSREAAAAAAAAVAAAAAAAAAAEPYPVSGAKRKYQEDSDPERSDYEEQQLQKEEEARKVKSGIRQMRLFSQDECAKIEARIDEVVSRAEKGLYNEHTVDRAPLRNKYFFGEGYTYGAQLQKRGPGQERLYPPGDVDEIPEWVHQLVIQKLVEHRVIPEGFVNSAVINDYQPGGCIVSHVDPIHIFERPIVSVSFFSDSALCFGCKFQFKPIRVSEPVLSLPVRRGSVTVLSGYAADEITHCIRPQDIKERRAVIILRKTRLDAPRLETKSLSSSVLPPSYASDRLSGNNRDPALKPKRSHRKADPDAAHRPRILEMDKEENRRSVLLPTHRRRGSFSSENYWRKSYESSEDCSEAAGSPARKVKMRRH", "experiment": "Inhibition of ALKBH5 demethylase activity (unknown origin) assessed as increase in methylated 6A-RNA level incubated for 2 hrs by colorimetric analysis"}
{"smiles": "O=C(O)CSC(O)C(=O)c1ccccc1", "note": "(stereo unspecified)", "values": [{"measurement": "IC50", "result": 840, "unit": "nM"}]}
